In patent publication US12209112B2, “Methods of preventing or treating diseases, conditions, or disorders associated with chemotherapy” (The Chinese University of Hong Kong, priority 2022, dated 2025):

Key:
C57BL/6J male mice = details: mouse, in vivo
Description: Recombinant human GDF15/MIC-1 protein (CHO-derived) was purchased from PeproTech Inc. (Cranbury, USA) and described in Example 1. […] For in vitro studies, solid lyophilized powder of these two drugs were solubilized at the recommended concentrations in sterile water, and separate aliquots were made and frozen until thawing prior to addition to cell cultures. For in vivo studies, all agents were dissolved in […] normal saline according to the required concentrations (doxorubicin, 5 mg/kg; GDF15, 0.5 mg/kg; dexrazoxane, […]), and the final volume of each intraperitoneal injection was 100 μl. The recommended dose ratio of dexrazoxane to doxorubicin was 10 to 1. In the following examples, 5 mg/kg of doxorubicin was used which correspond to 50 mg/kg of dexrazoxane. The FDA recommends that dexrazoxane be injected within 0.5 hour prior to doxorubicin infusion in individuals. This was followed in the same manner when applying to the test animals.
The body weight of each mouse was recorded weekly, before each doxorubicin injection and before sacrifice. At the end of experiment, all mice were euthanized with sodium pentobarbital 100 mg/kg administered intraperitoneally, and the hearts were excised immediately. The tibia of the mice were carefully dissected and its length was measured. […]

[1] = cancer survivors exposed to >250 mg/m2 doxorubicin vs. non-exposed; cited from earlier work
hESC-CMs [2] = test: PrestoBlue cell viability analysis of hESC-CMs exposed to doxorubicin; assay type: cell-based, human; details: for optimal timing of pretreatment prior to doxorubicin: 1, 6, 24, 48, 72 h tested, doxorubicin 1.5 μM for 24 h
Description: Viability of hESC-CMs was assessed using PrestoBlue (Thermo Fisher Scientific, USA). hESC-CMs in suspension were seeded at a density of 15,000 cells per well on 96-well flat-bottom microtiter plates and cultured at 37° C. in a humidified 5% CO2 atmosphere. The B27+/RPMI-1640 media with Y27632 were changed to B27+/RPMI−1640 media within 24 hours. Cells were then incubated in B27+/RPMI−1640 without supplement for at least 72 hours. PrestoBlue was diluted in a ratio of 1:10 in B27+/RPMI−1640 media and incubated with the cells at 37° C. for 30 minutes. After incubation, fluorescence reading was performed at excitation and emission wavelengths of 530 nm and 590 nm, respectively, using the Synergy HTX Multi-Mode microplate reader (Agilent Technologies, Inc., USA).
Six logarithmic concentrations of GDF15 were initially used to identify the optimal dose for cytoprotection: 0.1 ng/ml, 1 ng/ml, 10 ng/ml, 100 ng/ml, 1,000 ng/ml (1 ug/ml), and 10,000 ng/ml (10 ug/ml). Further refinement of dose response was subsequently achieved using concentrations at 100 ng/ml, 200 ng/ml, and 300 ng/ml. The optimal time point (see below) of 24 hours was selected. Doxorubicin at 1.5 μM was used to induce cytotoxicity.
hESC-CMs were pretreated with GDF15 for 1 hour, 6 hours, 24 hours, 48 hours, or 72 hours (“pretreatment”), followed by exposure to 1.5 μM doxorubicin alone for a further 24 hours. A second set of experiments involved pretreatment of hESC-CMs for 1 hour, 6 hours, 24 hours, 48 hours, or 72 hours, followed by removal of the media containing GDF15, and coincubation of hESC-CMs with both GDF15 and doxorubicin for another 24h (“pre/co-treatment”). The efficacy of GDF15 in protecting cardiomyocytes was assessed by cell viability analysis using PrestoBlue.

hESC-CMs [3] = test: Mitochondrial membrane potential (TMRE); assay type: cell-based, human
Description: Mitochondrial membrane potential (MMP) as a measure of mitochondrial function and viability was assessed using tetramethylrhodamine ethyl ester (TMRE) (Thermo Fisher Scientific, USA), a cell-permeant cationic fluorescent dye that is readily taken up by viable mitochondria. hESC-CMs seeded at 15,000 cells per well on a 96-well flat-bottom microtiter plate were cultured at 37° C. in a humidified 5% CO2 atmosphere for at least 3 days before MMP measurement. TMRE dye was applied at 50 nM for 20 minutes in B27+/RPMI−1640 media, followed by fluorescence reading at excitation and emission wavelengths of 485 nm and 528 nm, respectively, using the Synergy HTX Multi-Mode microplate reader.

[4] = hESC-CMs, pretreatment in the presence of Dox

| Molecule | heart weight-to-tibia length ratio (C57BL/6J male mice) | hazard ratio for developing heart failure [1] | cytoprotective effects after priming, pre/co-treatment (hESC-CMs [2]; hESC-CMs primed with GDF15 for 24 hours, then coincubation with GDF15 and doxorubicin 24 h) | optimal timing of pretreatment prior to doxorubicin (hESC-CMs [2]; hESC-CMs) [h] | optimal timing of pretreatment prior to doxorubicin (hESC-CMs [2]; hESC-CMs, listed as recombinant GDF15) | cell viability (positive PrestoBlue staining) (hESC-CMs [2]; hESC-CMs, GDF15 pretreatment for 24 hours before doxorubicin 1.5 μM) | cell viability compared with dexrazoxane (hESC-CMs [2]; [4]) | mitochondrial membrane potential and function (TMRE) (hESC-CMs [3]; 300 ng/ml GDF15 pretreatment, hESC-CMs exposed to doxorubicin) | mitochondrial membrane potential compared with dexrazoxane (hESC-CMs [3]; [4]) |
| --- | --- | --- | --- | --- | --- | --- | --- | --- | --- |
| COc1cccc2c1C(=O)c1c(O)c3c(c(O)c1C2=O)C[C@@](O)(C(=O)CO)C[C@@H]3OC1C[C@H](N)[C@H](O)[C@H](C)O1.Cl (stereo partly drawn) [Dox, (8S,10S)-10-[(3-Amino-2,3,6-trideoxy-L-lyxohexopyranosyl)oxy]-7,8,9,10-tetrahydro-6,8,11-trihydroxy-8-(hydroxyacetyl)-1-methoxynaphthacene-5,12-dione hydrochloride, reference compound] | decrease | 8.6 | – | – | – | – | – | – | – |
| GDF15: commercially available recombinant human GDF-15 protein (PeproTech 120-28C), CHO cell-derived, SEQ ID NO: 1 | – | – | cytoprotective effects persisted | 24 | approximately 24 hours | increased cell viability | slightly higher percentage of cell viability | better preserved than at other concentrations | performed similarly to dexrazoxane |
